The source of these data is patent publication US20100076015A1, “Aminopyridine Derivatives” (VANTIA LIMITED, priority 2008, published 2010).

Common to all, as to type: biochemical
One assay deals with trypsin. In words: Enzyme selectivity: trypsin (chromogenic substrate S-2222). The settings on record: human enzyme, chromogenic substrate S-2222, 37° C. The method, then:
(§1) Determination of Enzyme Selectivity
(§2) Selected compounds were further screened for inhibitory activity against other trypsin-like serine proteases using the appropriate enzyme and chromogenic substrate (Chromogenix AB). The activity against the following human enzymes was tested (substrate in brackets):—plasma kallikrein (S-2302), thrombin (S-2238), plasmin (S-2390) and trypsin (S-2222). The enzyme was incubated at 37° C. with the chromogenic substrate. Residual enzyme activity (initial rate of reaction) was determined by measuring the change in optical absorbance at 405 nm.

The target of the next assay is T1, Human KLK1 (Homo sapiens, UniProt P06870).
T1 construct: purchased Callbiochem (Calbiochem)
Kind of assay: Determination of the IC50 for KLK1 (fluorogenic substrate H-DVal-Leu-Arg-AFC). Particulars: 37° C. The procedure, abridged:
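Human KLK1 incubated at 37° C with fluorogenic substrate H-DVal-Leu-Arg-AFC and a range of test compound concentrations. Residual activity taken as initial reaction rate from absorbance change at 410 nm; IC50 derived from these rates.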

The target of another assay is plasmin (Homo sapiens, UniProt P00747). In words: Enzyme selectivity: plasmin (chromogenic substrate S-2390). The settings on record: chromogenic substrate S-2390, 37° C. The protocol:
as §1, §2

The target in another assay is plasma kallikrein (Homo sapiens, UniProt P03952). Kind of assay: Enzyme selectivity: plasma kallikrein (chromogenic substrate S-2302). The settings on record: chromogenic substrate S-2302, 37° C. The method, then: as §1, §2
Another assay deals with thrombin (Homo sapiens, UniProt P00734). In words: Enzyme selectivity: thrombin (chromogenic substrate S-2238). The settings on record: chromogenic substrate S-2238, 37° C. The method, then: as §1, §2

plasmin, sequence (P00747 581-810 limits assumed): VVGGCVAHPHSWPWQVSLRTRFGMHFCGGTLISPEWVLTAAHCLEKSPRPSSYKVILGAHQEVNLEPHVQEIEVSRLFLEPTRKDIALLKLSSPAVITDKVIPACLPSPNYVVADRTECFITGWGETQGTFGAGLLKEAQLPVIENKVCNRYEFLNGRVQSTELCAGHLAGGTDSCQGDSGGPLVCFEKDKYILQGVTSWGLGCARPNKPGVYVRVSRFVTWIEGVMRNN
plasmin, sequence (P00747 97-580 partner limits assumed): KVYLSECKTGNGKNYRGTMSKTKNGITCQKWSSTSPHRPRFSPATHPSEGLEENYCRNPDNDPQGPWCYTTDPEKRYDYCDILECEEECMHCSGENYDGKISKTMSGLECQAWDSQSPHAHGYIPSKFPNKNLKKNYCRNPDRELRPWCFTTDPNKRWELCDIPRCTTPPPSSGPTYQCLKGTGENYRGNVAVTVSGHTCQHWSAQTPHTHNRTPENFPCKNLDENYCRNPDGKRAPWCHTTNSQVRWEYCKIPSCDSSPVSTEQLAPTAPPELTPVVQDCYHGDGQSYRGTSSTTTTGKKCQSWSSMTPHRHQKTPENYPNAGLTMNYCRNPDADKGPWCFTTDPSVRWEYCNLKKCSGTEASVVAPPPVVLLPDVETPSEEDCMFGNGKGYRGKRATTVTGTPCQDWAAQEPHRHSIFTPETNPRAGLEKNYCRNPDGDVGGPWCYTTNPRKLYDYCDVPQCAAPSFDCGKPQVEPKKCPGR
T1 sequence (P06870 25-262): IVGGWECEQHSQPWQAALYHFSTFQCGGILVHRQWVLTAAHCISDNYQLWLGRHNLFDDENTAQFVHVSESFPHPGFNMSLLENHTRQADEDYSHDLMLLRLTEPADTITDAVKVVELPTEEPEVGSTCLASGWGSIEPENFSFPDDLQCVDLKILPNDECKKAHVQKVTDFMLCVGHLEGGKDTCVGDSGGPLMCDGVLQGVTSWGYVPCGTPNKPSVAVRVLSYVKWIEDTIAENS
plasma kallikrein, sequence (P03952 20-638): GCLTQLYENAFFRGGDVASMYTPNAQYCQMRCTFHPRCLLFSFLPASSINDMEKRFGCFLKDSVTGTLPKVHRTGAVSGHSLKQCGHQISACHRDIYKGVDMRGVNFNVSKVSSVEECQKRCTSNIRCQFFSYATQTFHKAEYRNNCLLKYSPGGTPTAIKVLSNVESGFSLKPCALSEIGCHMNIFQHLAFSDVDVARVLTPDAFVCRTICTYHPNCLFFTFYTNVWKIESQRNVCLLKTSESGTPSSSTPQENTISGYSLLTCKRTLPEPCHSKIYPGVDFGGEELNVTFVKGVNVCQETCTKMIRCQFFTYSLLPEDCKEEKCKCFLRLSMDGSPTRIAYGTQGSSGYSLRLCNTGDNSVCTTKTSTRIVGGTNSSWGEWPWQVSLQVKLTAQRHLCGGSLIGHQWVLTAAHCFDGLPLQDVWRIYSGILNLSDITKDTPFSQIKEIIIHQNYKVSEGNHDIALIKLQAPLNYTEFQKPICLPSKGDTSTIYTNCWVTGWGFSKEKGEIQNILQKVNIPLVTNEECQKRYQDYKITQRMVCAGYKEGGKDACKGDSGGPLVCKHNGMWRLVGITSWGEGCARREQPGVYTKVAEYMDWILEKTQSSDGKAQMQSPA

In general, IC50 refers to the point on the concentration scale where inhibition reaches its midpoint. As to `CCC(C)[C@@H](N)C(=O)N[C@@H](Cc1cccc2ccccc12)C(=O)NCc1ccc(N)nc1` (stereo partly drawn) [Example 1, (R)-2-Amino-3-methyl-pentanoic acid {(S)-1-[(6-amino-pyridin-3-ylmethyl)-carbamoyl]-2-naphthalen-1-yl-ethyl}-amide], the IC50 on trypsin was > 10 µM; on Human KLK1 it was 0.00096 µM; against plasmin, > 10 µM; against plasma kallikrein, > 10 µM; on thrombin, > 10 µM.

Turning to `CCC(C)[C@@H](N)C(=O)N[C@@H](CC1CCCC2CCCCC21)C(=O)NCc1ccc(N)nc1` (stereo partly drawn) [Example 2, (R)-2-Amino-3-methyl-pentanoic acid [(S)-1-[(6-amino-pyridin-3-ylmethyl)-carbamoyl]-2-(decahydro-naphthalen-1-yl)-ethyl]-amide], the IC50 against trypsin is > 10 µM; against Human KLK1, 0.001 µM; against plasmin, > 10 µM; against plasma kallikrein, > 10 µM; against thrombin, > 10 µM.

With `CCC(C)[C@@H](NC)C(=O)N[C@@H](Cc1ccc(Cl)c(Cl)c1)C(=O)NCc1ccc(N)nc1` (stereo partly drawn) [Example 3, (R)-3-Methyl-2-methylamino-pentanoic acid [(S)-1-[(6-amino-pyridin-3-ylmethyl)-carbamoyl]-2-(3,4-dichloro-phenyl)-ethyl]-amide], the IC50 on trypsin is > 10 µM; at Human KLK1, 0.00022 µM; on plasmin, > 10 µM; on plasma kallikrein it was > 10 µM; on thrombin, > 10 µM.

`Nc1ccc(CNC(=O)[C@H](Cc2ccc(Cl)c(Cl)c2)NC(=O)[C@H]2CCCN2)cn1` [Example 4, (R)-Pyrrolidine-2-carboxylic acid [(S)-1-[(6-amino-pyridin-3-ylmethyl)-carbamoyl]-2-(3,4-dichloro-phenyl)-ethyl]-amide]: the IC50 against trypsin, on plasmin, at plasma kallikrein and against thrombin was > 10 µM each time.

On to `CN1CCC[C@@H]1C(=O)N[C@@H](Cc1ccc(F)c(F)c1)C(=O)NCc1ccc(N)nc1` [Example 5, (R)-1-Methyl-pyrrolidine-2-carboxylic acid [(S)-1-[(6-amino-pyridin-3-ylmethyl)-carbamoyl]-2-(3,4-difluoro-phenyl)-ethyl]-amide], for which the IC50 against trypsin is > 10 µM; at Human KLK1, 0.0013 µM; at plasmin it was > 10 µM; at plasma kallikrein, > 10 µM; at thrombin it was > 10 µM.

For `CCC(C)[C@H](N)C(=O)N[C@@H](C(=O)NCc1ccc(N)nc1)C(C1CCCCC1)C1CCCCC1` (stereo partly drawn) [Example 11, (S)-2-Amino-3-methyl-pentanoic acid [(R)-1-[(6-amino-pyridin-3-ylmethyl)-carbamoyl]-2,2-dicyclohexyl-ethyl]-amide], the IC50 against trypsin was > 10 µM; against Human KLK1, 0.0049 µM; against plasmin, > 10 µM; at plasma kallikrein, > 10 µM; on thrombin, > 10 µM.

On to `Nc1ccc(CNC(=O)[C@H](CC2CCCC3CCCCC32)NC(=O)[C@H](N)Cc2ccc(Cl)cc2)cn1` (stereo partly drawn) [Example 13, (R)-2-Amino-N-[(S)-1-[(6-amino-pyridin-3-ylmethyl)carbamoyl]-2-(decahydro-naphthalen-1-yl)-ethyl]-3-(4-chloro-phenyl)-propionamide], for which the IC50 against trypsin is > 10 µM; against Human KLK1, 0.0098 µM; at plasmin it was > 10 µM; on plasma kallikrein, > 10 µM; against thrombin, > 10 µM.

Regarding `CCC(C)[C@@H](N)C(=O)N[C@@H](CC1CCCCC1)C(=O)NCc1ccc(N)nc1` (stereo partly drawn) [Example 20, (R)-2-Amino-3-methyl-pentanoic acid {(S)-1-[(6-amino-pyridin-3-ylmethyl)-carbamoyl]-2-cyclohexyl-ethyl}-amide], the IC50 against trypsin was > 10 µM; against Human KLK1, 0.0043 µM; on plasmin, > 10 µM; against plasma kallikrein it was > 10 µM; at thrombin, > 10 µM.

For the compound `CCC(C)[C@@H](N)C(=O)N[C@@H](Cc1ccccc1C(F)(F)F)C(=O)NCc1ccc(N)nc1` (stereo partly drawn) [Example 25, (R)-2-Amino-3-methyl-pentanoic acid [(S)-1-[(6-amino-pyridin-3-ylmethyl)-carbamoyl]-2-(2-trifluoromethyl-phenyl)-ethyl]-amide], the half-inhibitory concentration (IC50) is > 10 µM against trypsin; 0.0098 µM on Human KLK1; > 10 µM against plasmin; > 10 µM against plasma kallikrein; > 10 µM against thrombin.

Regarding `CCC(C)[C@H](C(=O)N[C@@H](Cc1cc(F)cc(F)c1)C(=O)NCc1ccc(N)nc1)N(C)C` (stereo partly drawn) [Example 424, (R)-2-Dimethylamino-3-methyl-pentanoic acid [(S)-1-[(6-amino-pyridin-3-ylmethyl)-carbamoyl]-2-(3,5-difluoro-phenyl)-ethyl]-amide], the IC50 at Human KLK1 stood at 0.028 µM.

On Human KLK1, `CC(C(=O)N[C@@H](Cc1cc(F)cc(F)c1)C(=O)NCc1ccc(N)nc1)N1CCCCC1` (stereo partly drawn) [Example 425, N-[(S)-1-[(6-Amino-pyridin-3-ylmethyl)-carbamoyl]-2-(3,5-difluoro-phenyl)-ethyl]-2-piperidin-1-yl-propionamide] displayed an IC50 of 0.0149 µM.

On Human KLK1, `CC1CCCC(C)N1CC(=O)N[C@@H](Cc1ccc(Cl)cc1)C(=O)NCc1ccc(N)nc1` (stereo partly drawn) [Example 426, (S)—N-(6-Amino-pyridin-3-ylmethyl)-3-(4-chloro-phenyl)-2-[2-(2,6-dimethyl-piperidin-1-yl)-acetylamino]-propionamide] registered an IC50 of 0.0027 µM.

Take `CC(C)C[C@H](NC(=O)[C@H](C)N(C)C(C)C)C(=O)NCc1ccc(N)nc1` [Example 427, (S)-2-[(S)-2-(Isopropyl-methyl-amino)-propionylamino]-4-methyl-pentanoic acid (6-amino-pyridin-3-ylmethyl)-amide]: the IC50 at Human KLK1 came to 0.106 µM.

`CCN(CC)CC(=O)N[C@@H](Cc1ccc(F)cc1)C(=O)NCc1ccc(N)nc1C` [Example 428, (S)—N-(6-Amino-2-methyl-pyridin-3-ylmethyl)-2-(2-diethylamino-acetylamino)-3-(4-fluoro-phenyl)-propionamide] registered an IC50 against Human KLK1 of 0.0099 µM.

For the compound `Cc1nc(N)ccc1CNC(=O)[C@H](Cc1ccc(F)c(F)c1)NC(=O)CN1C(C)CCCC1C` (stereo partly drawn) [Example 429, (S)—N-(6-Amino-2-methyl-pyridin-3-ylmethyl)-3-(3,4-difluoro-phenyl)-2-[2-(2,6-dimethyl-piperidin-1-yl)-acetylamino]-propionamide], the IC50 at Human KLK1 was determined as 0.0017 µM.

At Human KLK1, `Cc1nc(N)ccc1CNC(=O)[C@H](Cc1ccc(F)c(F)c1)NC(=O)CN1CCCCC1` [Example 430, (S)—N-(6-Amino-2-methyl-pyridin-3-ylmethyl)-3-(3,4-difluoro-phenyl)-2-(2-piperidin-1-yl-acetylamino)-propionamide] displayed an IC50 of 0.0598 µM.

The compound `Cc1nc(N)ccc1CNC(=O)[C@H](Cc1ccc(F)c(F)c1)NC(=O)[C@@H](C)N1CCCCC1` [Example 431, (R)—N-[(S)-1-[(6-Amino-2-methyl-pyridin-3-ylmethyl)-carbamoyl]-2-(3,4-difluoro-phenyl)-ethyl]-2-piperidin-1-yl-propionamide] returned a concentration for half-maximal inhibition (IC50) on Human KLK1 of 0.0506 µM.

`Cc1nc(N)ccc1CNC(=O)[C@H](Cc1ccc(F)c(F)c1)NC(=O)[C@H](C)N1CCCCC1` [Example 432, (S)—N-[(S)-1-[(6-Amino-2-methyl-pyridin-3-ylmethyl)-carbamoyl]-2-(3,4-difluoro-phenyl)-ethyl]-2-piperidin-1-yl-propionamide]: inhibition against Human KLK1 was half-maximal at 0.017 µM (IC50).

In the case of `CC(C)N(C)[C@@H](C)C(=O)N[C@@H](C(=O)NCc1ccc(N)nc1)C(C1CCCCC1)C1CCCCC1` [Example 433, (S)—N-{(R)-1-[(6-Amino-pyridin-3-ylmethyl)-carbamoyl]-2,2-dicyclohexyl-ethyl}-2-(isopropyl-methyl-amino)-propionamide], the IC50 against Human KLK1 came to 0.1 µM.

For the compound `CC(C)N(C)[C@@H](C)C(=O)N[C@@H](C(=O)NCc1ccc(N)nc1)C(O)C1CCCCC1` (stereo partly drawn) [Example 435, (S)—N-{(R)-1-[(6-Amino-pyridin-3-ylmethyl)-carbamoyl]-2-cyclohexyl-2-hydroxy-ethyl}-2-(isopropyl-methyl-amino)-propionamide], inhibition on Human KLK1 was half-maximal at 0.005 µM (IC50).

Regarding `CC(C1CCCCC1)[C@@H](NC(=O)[C@H](C)N(C)C(C)C)C(=O)NCc1ccc(N)nc1` (stereo partly drawn) [Example 436, (R)—N-(6-Amino-pyridin-3-ylmethyl)-3-cyclohexyl-2-[(S)-2-(isopropyl-methyl-amino)-propionylamino]-butyramide], at Human KLK1, the IC50 turned out to be 0.0036 µM.

On Human KLK1, `CCN(CC)C(C)C(=O)N(C)C(CC1CCCCC1)C(=O)NCc1ccc(N)nc1` [Example 438, S)—N-{(S)-1-[(6-Amino-pyridin-3-ylmethyl)-carbamoyl]-2-cyclohexyl-ethyl}-2-diethylamino-N-methyl-propionamide] showed an IC50 of 0.0054 µM.

In turn, “(R)—N-[(S)-1-[(6-Amino-pyridin-3-ylmethyl)-carbamoyl]-2-(3,4-dichloro-phenyl)-ethyl]-3-methyl-2-methylamino-butyramide [Example 340]” displayed an IC50 on Human KLK1 of 0.00038 µM.

With “(S)—N-{(R)-1-[(6-Amino-pyridin-3-ylmethyl)-carbamoyl]-2,2-dicyclohexyl-ethyl}-2-dimethylamino-propionamide [Example 434]”, on Human KLK1, half-maximal inhibition (IC50) was put at 0.0439 µM.
